Earlier results as cited in patent US20030170847A1, “Genes involved in isoprenoid compound production” (priority 2001, published 2003).

Columns and labels:
[1] = tested on: nonphotosynthetic bacterial CrtY-type of lycopene cyclases; conditions: Cunningham et al., The Plant Cell 1994
[2] = tested on: CrtL-type of lycopene cyclases; conditions: Cunningham et al., The Plant Cell 1994

Which results are given for CCN(CC)CCOc1ccc(C)cc1.Cl [MPTA, 2-(4-methylphenoxy)-triethylamine hydrochloride]?
inhibition of CrtY-type of lycopene cyclases [1]: not; inhibition of CrtL-type of lycopene cyclases [2]: specifically inhibit

With CCN(CC)CCSc1ccc(Cl)cc1.Cl [CPTA, 2-(4-chlorophenylthio)-triethylamine hydrochloride] as the molecule, how does the “inhibition of CrtY-type of lycopene cyclases” value [1] read?
Its value is “not”.

What about the “inhibition of CrtL-type of lycopene cyclases” value [2] of the same molecule?
The value was “specifically inhibit”.
